What all share (type): cell-based
Assay [1] has as its target T1, human PAC1 receptor (Homo sapiens, UniProt P41586).
T1 construct: expressed in transfected cells; host or cells: CHO cells (G418 selection)
T1 sequence (P41586 21-468): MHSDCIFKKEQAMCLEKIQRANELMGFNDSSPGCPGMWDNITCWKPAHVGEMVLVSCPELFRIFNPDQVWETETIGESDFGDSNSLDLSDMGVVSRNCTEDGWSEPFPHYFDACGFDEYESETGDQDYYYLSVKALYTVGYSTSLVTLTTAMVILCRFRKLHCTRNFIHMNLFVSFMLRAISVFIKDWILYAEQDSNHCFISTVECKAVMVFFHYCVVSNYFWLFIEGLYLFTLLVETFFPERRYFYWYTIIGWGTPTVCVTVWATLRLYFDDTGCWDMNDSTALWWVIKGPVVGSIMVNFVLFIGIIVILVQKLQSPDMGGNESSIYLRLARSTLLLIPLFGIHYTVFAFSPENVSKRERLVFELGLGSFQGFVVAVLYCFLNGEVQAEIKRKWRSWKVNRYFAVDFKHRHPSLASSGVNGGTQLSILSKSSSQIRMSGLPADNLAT
The experiment in a line: cAMP stimulation in CHO cells expressing PAC1. The note with it: for Emax: CHO. How it is done:
(§1) Briefly, human PAC1, VPAC1, and VPAC2 receptors expressed in CHO cells were used for all experiments. Cells were grown in 50:50 DMEM-F12 medium with 10% heat-inactivated fetal bovine serum, 1X penicillin-streptomycin supplement, and 500 μg/ml G418 (neomycin) to maintain selection (all from ThermoFisher) at 37°C with 5% CO2 atmosphere. For the cAMP assay, cells were seeded at 20,000 cells/well in a 96 well plate, recovered overnight, then serum starved for 4 h. The cells were then incubated with 500 μM IBMX for 20 min, followed by agonist concentration curves in 500 μM IBMX media for 10 min. The reaction was terminated, boiled, then collected, followed by competition with 7 μg of bovine protein kinase A (Sigma-Aldrich) and ∼1 pmol of ^3H-cAMP (PerkinElmer). The assay was incubated at room temp for 1 h, then collected onto GF/B filter plates and the data read using a MicroBeta2 scintillation counter (PerkinElmer).

The target of assay [2] is T2, human VPAC1 receptor (Homo sapiens, UniProt P32241).
T2 construct: expressed in transfected cells; host or cells: CHO cells (G418 selection)
T2 sequence (P32241 31-457): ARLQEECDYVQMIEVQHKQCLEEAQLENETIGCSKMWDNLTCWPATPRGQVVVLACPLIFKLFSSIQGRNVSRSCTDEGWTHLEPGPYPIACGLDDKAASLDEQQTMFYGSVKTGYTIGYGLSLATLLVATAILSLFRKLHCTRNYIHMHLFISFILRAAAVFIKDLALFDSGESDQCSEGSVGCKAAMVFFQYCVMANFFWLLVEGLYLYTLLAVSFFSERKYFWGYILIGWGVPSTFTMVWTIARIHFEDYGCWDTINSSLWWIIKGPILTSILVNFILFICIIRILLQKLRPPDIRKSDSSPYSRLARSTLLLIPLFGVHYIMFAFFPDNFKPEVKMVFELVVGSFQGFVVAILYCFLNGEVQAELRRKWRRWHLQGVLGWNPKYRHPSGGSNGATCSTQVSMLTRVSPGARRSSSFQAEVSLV
Nature of the assay: cAMP stimulation in CHO cells expressing VPAC1. The note with it: for Emax: CHO, read-out: VPAC1 Emax; for Receptor selectivity ratio VPAC1/PAC1: ratio of cAMP EC50 values; for EC50: read-out: VPAC1 EC50.

Assay [3] concerns the target T3, human VPAC2 receptor (Homo sapiens, UniProt P41587).
T3 construct: expressed in transfected cells; host or cells: CHO cells (G418 selection)
T3 sequence (P41587 24-438): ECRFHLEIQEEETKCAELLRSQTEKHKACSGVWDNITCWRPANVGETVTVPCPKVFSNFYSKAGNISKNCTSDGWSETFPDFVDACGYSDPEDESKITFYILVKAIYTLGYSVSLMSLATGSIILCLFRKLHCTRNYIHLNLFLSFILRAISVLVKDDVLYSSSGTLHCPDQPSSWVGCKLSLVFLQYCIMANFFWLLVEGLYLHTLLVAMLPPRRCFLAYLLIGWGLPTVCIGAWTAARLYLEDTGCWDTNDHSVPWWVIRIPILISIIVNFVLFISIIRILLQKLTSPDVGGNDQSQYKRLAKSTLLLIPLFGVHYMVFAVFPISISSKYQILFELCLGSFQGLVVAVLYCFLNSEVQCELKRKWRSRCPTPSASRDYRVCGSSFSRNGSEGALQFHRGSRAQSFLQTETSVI
The experiment in a line: cAMP stimulation in CHO cells expressing VPAC2. Conditions: for Emax: CHO; for Receptor selectivity ratio VPAC2/PAC1 / Receptor selectivity ratio VPAC2/VPAC1: ratio of cAMP EC50 values. The method, then:
as §1

One may read the EC50 as the concentration needed to bring the measured effect to its halfway point. As a reminder, the Emax is the maximal effect, on the per cent scale that the assay sets.

Bounds are passed on as bounds.

As for `CC[C@H](C)[C@H](NC(=O)CNC(=O)[C@H](CC(=O)O)NC(=O)[C@H](CO)NC(=O)[C@@H](N)Cc1c[nH]cn1)C(=O)N[C@@H](Cc1ccccc1)C(=O)N[C@H](C(=O)N[C@@H](CC(=O)O)C(=O)N[C@@H](CO)C(=O)N[C@@H](Cc1ccc(O)cc1)C(=O)N[C@@H](CO)C(=O)N[C@@H](CCCNC(=N)N)C(=O)N[C@@H](Cc1ccc(O)cc1)C(=O)N[C@@H](CCCNC(=N)N)C(=O)N[C@@H](CCCCN)C(=O)N[C@@H](CCC(N)=O)C(=O)N[C@@H](CC(C)C)C(=O)N[C@@H](C)C(=O)N[C@H](C(=O)N[C@@H](CCCCN)C(=O)N[C@@H](CCCCN)C(=O)N[C@@H](Cc1ccc(O)cc1)C(=O)N[C@@H](CC(C)C)C(=O)N[C@@H](C)C(=O)N[C@@H](C)C(=O)N[C@H](C(=O)N[C@@H](CC(C)C)C(=O)N[C@@H](CO[C@@H]1O[C@H](CO[C@H]2O[C@H](CO)[C@H](O)[C@H](O)[C@H]2O)[C@@H](O)[C@H](O)[C@H]1O)C(N)=O)C(C)C)C(C)C)[C@@H](C)O` [Compound 2LS98Mel], in assay [1], the EC50 is 0.57 nM and the Emax worked out at 99%. Further, in assay [2], the Emax stood at 102%, the “Receptor selectivity ratio VPAC1/PAC1” value came out at 0.96 and the EC50 stood at 0.55 nM. In assay [3], a half-maximal response (EC50) required 9.4 nM, the Emax was 86%, the “Receptor selectivity ratio VPAC2/PAC1” value came out at 16.49 and the “Receptor selectivity ratio VPAC2/VPAC1” value was found to be 17.09.
For `CCC[C@H](NC(=O)[C@H](CCC(N)=O)NC(=O)[C@H](CCCCN)NC(=O)[C@H](CCCNC(=N)N)NC(=O)[C@H](Cc1ccc(O)cc1)NC(=O)[C@H](CCCNC(=N)N)NC(=O)[C@H](CO)NC(=O)[C@H](Cc1ccc(O)cc1)NC(=O)[C@H](CO)NC(=O)[C@H](CC(=O)O)NC(=O)[C@@H](NC(=O)[C@H](Cc1ccccc1)NC(=O)[C@@H](NC(=O)CNC(=O)[C@H](CC(=O)O)NC(=O)[C@@H](CO)NC(=O)[C@@H](N)Cc1c[nH]cn1)[C@@H](C)CC)[C@@H](C)O)C(=O)N[C@@H](C)C(=O)N[C@H](C(=O)N[C@@H](CCCCN)C(=O)N[C@@H](CCCCN)C(=O)N[C@@H](Cc1ccc(O)cc1)C(=O)N[C@@H](CC(C)C)C(=O)N[C@@H](C)C(=O)N[C@@H](C)C(=O)N[C@@H](CO[C@@H]1O[C@H](CO)[C@@H](O)[C@H](O)[C@H]1O)C(=O)N[C@@H](CC(C)C)C(N)=O)C(C)C` [CRA3002], the EC50 in assay [1] was more than 250 nM; in assay [2], 5.9 nM; in assay [3] it was more than 2500 nM. For the same compound, the Emax is -79% in assay [1] and 93% in assay [2].
For `CCC[C@H](NC(=O)[C@H](CCC(N)=O)NC(=O)[C@H](CCCCN)NC(=O)[C@H](CCCNC(=N)N)NC(=O)[C@H](Cc1ccc(O)cc1)NC(=O)[C@H](CCCNC(=N)N)NC(=O)[C@H](CO)NC(=O)[C@H](Cc1ccc(O)cc1)NC(=O)[C@H](CO)NC(=O)[C@H](CC(=O)O)NC(=O)[C@@H](NC(=O)[C@H](Cc1ccccc1)NC(=O)[C@@H](NC(=O)CNC(=O)[C@H](CC(=O)O)NC(=O)[C@@H](CO)NC(=O)[C@@H](N)Cc1c[nH]cn1)[C@@H](C)CC)[C@@H](C)O)C(=O)N[C@@H](C)C(=O)N[C@H](C(=O)N[C@@H](CCCCN)C(=O)N[C@@H](CCCCN)C(=O)N[C@@H](Cc1ccc(O)cc1)C(=O)N[C@@H](CC(C)C)C(=O)N[C@@H](C)C(=O)N[C@@H](C)C(=O)N[C@H](C(=O)N[C@@H](CC(C)C)C(=O)N[C@@H](CO[C@@H]1O[C@H](CO)[C@@H](O[C@@H]2O[C@H](CO)[C@H](O)[C@H](O)[C@H]2O)[C@H](O)[C@H]1O)C(N)=O)C(C)C)C(C)C` [CRA 3000-Lac], the values for the Emax in assay [1], in assay [2] and in assay [3] were 92%, 96% and 116%, respectively.
As for `CCC[C@H](NC(=O)[C@H](CCC(N)=O)NC(=O)[C@H](CCCCN)NC(=O)[C@H](CCCNC(=N)N)NC(=O)[C@H](Cc1ccc(O)cc1)NC(=O)[C@H](CCCNC(=N)N)NC(=O)[C@H](CO)NC(=O)[C@H](Cc1ccc(O)cc1)NC(=O)[C@H](CO)NC(=O)[C@H](CC(=O)O)NC(=O)[C@@H](NC(=O)[C@H](Cc1ccccc1)NC(=O)[C@@H](NC(=O)[C@H](C)NC(=O)[C@H](CC(=O)O)NC(=O)[C@@H](CO)NC(=O)[C@@H](N)Cc1c[nH]cn1)[C@@H](C)CC)[C@@H](C)O)C(=O)N[C@@H](C)C(=O)N[C@H](C(=O)N[C@@H](CCCCN)C(=O)N[C@@H](CCCCN)C(=O)N[C@@H](Cc1ccc(O)cc1)C(=O)N[C@@H](CC(C)C)C(=O)N[C@@H](C)C(=O)N[C@@H](C)C(=O)N[C@H](C(=O)N[C@@H](CC(C)C)C(=O)N[C@@H](CO[C@@H]1O[C@H](CO)[C@@H](O)[C@H](O)[C@H]1O)C(N)=O)C(C)C)C(C)C` [CRA3010], the Emax in assay [1] was 89%; in assay [2] it was 107%; in assay [3], 112%.
For the compound `CC[C@H](C)[C@H](NC(=O)CNC(=O)[C@H](CC(=O)O)NC(=O)[C@H](CO)NC(=O)[C@H](Cc1c[nH]cn1)NC(C)=O)C(=O)N[C@@H](Cc1ccccc1)C(=O)N[C@H](C(=O)N[C@@H](CC(=O)O)C(=O)N[C@@H](CO)C(=O)N[C@@H](Cc1ccc(O)cc1)C(=O)N[C@@H](CO)C(=O)N[C@@H](CCCNC(=N)N)C(=O)N[C@@H](Cc1ccc(O)cc1)C(=O)N[C@@H](CCCNC(=N)N)C(=O)N[C@@H](CCCCN)C(=O)N[C@@H](CCC(N)=O)C(=O)N[C@@H](CC(C)C)C(=O)N[C@@H](C)C(=O)N[C@H](C(=O)N[C@@H](CCCCN)C(=O)N[C@@H](CCCCN)C(=O)N[C@@H](Cc1ccc(O)cc1)C(=O)N[C@@H](CC(C)C)C(=O)N[C@@H](C)C(=O)N[C@@H](C)C(=O)N[C@H](C(=O)N[C@@H](CC(C)C)C(=O)N[C@@H](CO[C@@H]1O[C@H](CO)[C@@H](O[C@@H]2O[C@H](CO)[C@H](O)[C@H](O)[C@H]2O)[C@H](O)[C@H]1O)C(N)=O)C(C)C)C(C)C)[C@@H](C)O` [Ac-2LS132], in assay [1], a half-maximal effect (EC50) was put at 2.8 nM and the Emax was 96%. In assay [2], the Emax is 98%, the “Receptor selectivity ratio VPAC1/PAC1” value worked out at 0.79 and the EC50 turned out to be 2.2 nM. Besides, in assay [3], the EC50 worked out at 27.2 nM, the Emax worked out at 101%, the “Receptor selectivity ratio VPAC2/PAC1” value was found to be 9.71 and the “Receptor selectivity ratio VPAC2/VPAC1” value was 12.36.
For `CCC[C@H](NC(=O)[C@H](CCC(N)=O)NC(=O)[C@H](CCCCN)NC(=O)[C@H](CCCNC(=N)N)NC(=O)[C@H](Cc1ccc(O)cc1)NC(=O)[C@H](CCCNC(=N)N)NC(=O)[C@H](CO)NC(=O)[C@H](Cc1ccc(O)cc1)NC(=O)[C@H](CO)NC(=O)[C@H](CC(=O)O)NC(=O)[C@@H](NC(=O)[C@H](Cc1ccccc1)NC(=O)[C@H](CC(C)C)NC(=O)CNC(=O)[C@H](CC(=O)O)NC(=O)[C@@H](CO)NC(=O)[C@@H](N)Cc1c[nH]cn1)[C@@H](C)O)C(=O)N[C@@H](C)C(=O)N[C@H](C(=O)N[C@@H](CCCCN)C(=O)N[C@@H](CCCCN)C(=O)N[C@@H](Cc1ccc(O)cc1)C(=O)N[C@@H](CC(C)C)C(=O)N[C@@H](C)C(=O)N[C@@H](C)C(=O)N[C@H](C(=O)N[C@@H](CC(C)C)C(=O)N[C@@H](CO[C@@H]1O[C@H](CO)[C@@H](O)[C@H](O)[C@H]1O)C(N)=O)C(C)C)C(C)C` [CRA3013], in assay [1], the EC50 worked out at 88.9 nM and the Emax stood at 74%. For the same compound, in assay [2], the Emax turned out to be 113%, the “Receptor selectivity ratio VPAC1/PAC1” value is 0.24 and the EC50 stood at 20.9 nM. Also, in assay [3], the EC50 was 650 nM, the Emax worked out at 88%, the “Receptor selectivity ratio VPAC2/PAC1” value is listed as 7.31 and the “Receptor selectivity ratio VPAC2/VPAC1” value was 31.10.

The values are drawn from article PMC8887546, “Design and Synthesis of Brain Penetrant Glycopeptide Analogues of PACAP With Neuroprotective Potential for Traumatic Brain Injury and Parkinsonism” (Frontiers in drug discovery, 2022).
